Experimental findings from publication PMC11233548 (Communications Biology, 2024) are described below.

The test system of this assay is B-RBD-D211A, D213A. Kind of assay: BRET-titration Gal1/B-RBD-D211A, D213A. The following applies: versus wild-type, n = 3. The assay is classed as cell-based, human. Background: In BRET a luciferase serves as donor, and the signal depends on an acceptor being close.

Turning to “Gal1: galectin-1, H-Ras nanocluster scaffold”, the “BRETtop, Gal1/B-RBD-D211A, D213A” value was “significantly reduced”.
